According to patent publication US8110681B2, “Compounds for the treatment of spinal muscular atrophy and other uses” (The United States of America as represented by the …, priority 2006, dated 2012):

Test system: SMN2-linked luciferase-reporter gene construct
Test: SMN splice reporter assay (SMN2-linked luciferase reporter, Example 10)
Assay type: cell-based
Settings: average; for EC50: SMN2-linked luciferase reporter; for maximal fold induction: read-out: SMN Splice Reporter Assay (Example 10) Avg MaxFold Increase
Excerpt: Cervical carcinoma cell lines were transformed with a SMN2-linked luciferase-reporter gene construct. The reporter is designed to detect shifts in the alternative splicing of SMN2 sequences. In particular, the reporter is constructed as a fusion of the alternatively spliced sequences of the SMN2 gene and the luciferase gene. Luciferase sequences are in the correct translational reading frame only when the SMN2 sequences are spliced according to the normal SMN1 mechanism (e.g., splicing to include exon 7), which allows for translation of the stable SMN protein. Compounds were tested in the assay by administering the compound to the cell line and detecting an increase in the luciferase activity. The assay is described in greater detail in Zhang et al., Gene Ther., 8, 1532-8 (2001). Compounds were administered as described in Lunn et al, Chem. & Biol, 11, 1489-1493 (2004).
The results are reported as a fold-increase over a baseline reading of transformed cells without any test compound.

[1] = maximum fold increase of reporter signal

Compound	EC50 [µM]	SMN Splice Reporter Assay (Example 10) Avg MaxFold Increase [1]	maximal fold induction [1]
CC(C(=O)OC(C)(C)C)c1ccc(N2Cc3ccccc3C2=O)cc1 (stereo not shown) [ALB-111730]	1.66	1.267	
COC(=O)C(C)c1ccc(N2Cc3ccccc3C2=O)cc1 (stereo not shown) [ALB-111731]	0.174		1.43
CCOC(=O)C(C)c1ccc(N2Cc3ccccc3C2=O)cc1 (stereo not shown) [ALB-111732]	0.325		1.41
CC(C(=O)OCc1ccccc1)c1ccc(N2Cc3ccccc3C2=O)cc1 (stereo not shown) [ALB-111733]	0.528		1.56
CC(C(=O)OC(C)(C)C)c1ccc(N2Cc3ccccc3C2=O)cc1 (stereo not shown) [ALB-111738]	2.29		1.17
CC(C(=O)OC(C)(C)C)c1ccc(N2Cc3ccc(Cl)cc3C2=O)cc1 (stereo not shown) [ALB-111740]	2.02		1.49
CC(C(=O)NS(C)(=O)=O)c1ccc(N2Cc3ccccc3C2=O)cc1 (stereo not shown) [ALB-111744]			1.14
CC(C(=O)OC(C)(C)C)c1ccc(N2Cc3ccc(N)cc3C2=O)cc1 (stereo not shown) [ALB-111745]	2.12		1.17
CC(C(=O)NC#N)c1ccc(N2Cc3ccccc3C2=O)cc1 (stereo not shown) [ALB-111746]			1.11
CC(C(=O)NS(=O)(=O)c1ccccc1)c1ccc(N2Cc3ccccc3C2=O)cc1 (stereo not shown) [ALB-111747]			1.04
CC(C(=O)NO)c1ccc(N2Cc3ccccc3C2=O)cc1 (stereo not shown) [ALB-111748]	2.27		1.38
CC(C(=O)NS(=O)(=O)N(C)C)c1ccc(N2Cc3ccccc3C2=O)cc1 (stereo not shown) [ALB-111749]	14		1.16
CC(C(=O)OC(C)(C)C)c1ccc(N2Cc3c(Cl)cccc3C2=O)cc1 (stereo not shown) [ALB-111760]			1.07
CC(C(=O)OC(C)(C)C)c1ccc(N2Cc3cc(Cl)ccc3C2=O)cc1 (stereo not shown) [ALB-111761]	5.56		1.19
CC(C(=O)O)c1ccc(N2Cc3cc(Cl)ccc3C2=O)cc1 (stereo not shown) [ALB-111762]	0.358		1.38
CC(C(=O)O)c1ccc(N2Cc3c(Cl)cccc3C2=O)cc1 (stereo not shown) [ALB-111763]	13.9		1.17
CC(C(=O)OC(C)(C)C)c1ccc(N2Cc3cccc(Cl)c3C2=O)cc1 (stereo not shown) [ALB-111783]	1.56		1.13
CC(C(=O)O)c1ccc(N2Cc3cccc(Cl)c3C2=O)cc1 (stereo not shown) [ALB-111784]	1.13		1.41
CCCC1c2ccccc2C(=O)N1c1ccc(C(C)C(=O)O)cc1 (stereo not shown) [ALB-111795]	25.8		1.41
CC(C)(C(=O)O)c1ccc(N2Cc3ccccc3C2=O)cc1 [ALB-111796]	3.52		1.22
CC(C(=O)OC(C)(C)C)c1ccc(N2Cc3cc(Br)ccc3C2=O)cc1 (stereo not shown) [ALB-111853]	21.4		1.1
CC(C(=O)OC(C)(C)C)c1ccc(N2Cc3cc(-c4ccc(Cl)c(Cl)c4)ccc3C2=O)cc1 (stereo not shown) [ALB-111854]			1.04
CC(C(=O)O)c1ccc(N2Cc3cc(Br)ccc3C2=O)cc1 (stereo not shown) [ALB-111855]	0.553		1.35
CC(C(=O)NS(=O)(=O)C(C)C)c1ccc(N2Cc3ccccc3C2=O)cc1 (stereo not shown) [ALB-111856]	0.568		1.14
CCCC(C)(C(=O)O)c1ccc(N2Cc3ccccc3C2=O)cc1 (stereo not shown) [ALB-111857]			1.07
CC(C(=O)OC(C)(C)C)c1ccc(N2Cc3ccccc3C2=O)cc1Br (stereo not shown) [ALB-111882]	2.83		1.24
CC(C(=O)O)c1ccc(N2Cc3ccc(N)cc3C2=O)cc1 (stereo not shown) [ALB-111883a]	1.26		1.17

Compound	EC50 [µM]	SMN Splice Reporter Assay (Example 10) Avg MaxFold Increase [1]	maximal fold induction [1]
CC(C(=O)OC(C)(C)C)c1ccc(N2Cc3cc(-c4cccnc4)ccc3C2=O)cc1 (stereo not shown) [ALB-111884]			1.03
CC(C(=O)O)c1ccc(N2Cc3cc(-c4ccc(Cl)c(Cl)c4)ccc3C2=O)cc1 (stereo not shown) [ALB-111885]			1.09
CC(C(=O)OC(C)(C)C)c1ccc(N2Cc3cc(-c4ccc(Cl)cc4)ccc3C2=O)cc1 (stereo not shown) [ALB-111886]			1.07
Cc1ccc(-c2ccc3c(c2)CN(c2ccc(C(C)C(=O)OC(C)(C)C)cc2)C3=O)cc1 (stereo not shown) [ALB-111887]			1.04
CC(C(=O)OC(C)(C)C)c1ccc(N2Cc3cc(-c4ccccc4)ccc3C2=O)cc1 (stereo not shown) [ALB-111888]			1.1
CC(C(=O)O)c1ccc(N2Cc3cc(-c4cccnc4)ccc3C2=O)cc1 (stereo not shown) [ALB-111889]			1.05
CC(C(=O)O)c1ccc(N2Cc3cc(-c4ccc(Cl)cc4)ccc3C2=O)cc1 (stereo not shown) [ALB-111890]	7.74		1.16
Cc1ccc(-c2ccc3c(c2)CN(c2ccc(C(C)C(=O)O)cc2)C3=O)cc1 (stereo not shown) [ALB-111891]	8.88		1.31
COc1ccc(-c2ccc3c(c2)CN(c2ccc(C(C)C(=O)O)cc2)C3=O)cc1 (stereo not shown) [ALB-111892]	4.31		1.46
COc1ccc2c(c1)CN(c1ccc(C(C)C(=O)OC(C)(C)C)cc1)C2=O (stereo not shown) [ALB-111893]			1.09
COc1cccc2c1CN(c1ccc(C(C)C(=O)OC(C)(C)C)cc1)C2=O (stereo not shown) [ALB-111894]	3.16		1.29
COc1cccc2c1CN(c1ccc(C(C)C(=O)O)cc1)C2=O (stereo not shown) [ALB-111895]			1.15
CC(C(=O)OC(C)(C)C)c1ccc(N2Cc3cc(N)ccc3C2=O)cc1 (stereo not shown) [ALB-111949]	5.22		1.29
CC(C(=O)O)c1ccc(N2Cc3cc(N)ccc3C2=O)cc1 (stereo not shown) [ALB-111950a]			1.07
CC(C(=O)OC(C)(C)C)c1ccc(N2Cc3cccc([N+](=O)[O-])c3C2=O)cc1 (stereo not shown) [ALB-111951]			1.2
CC(C(=O)OC(C)(C)C)c1ccc(N2Cc3c(N)cccc3C2=O)cc1 (stereo not shown) [ALB-111952]			1.04
COc1ccc(C(=O)Nc2ccc3c(c2)C(=O)N(c2ccc(C(C)C(=O)OC(C)(C)C)cc2)C3)cc1 (stereo not shown) [ALB-111954]			1.04
COc1cccc2c1C(=O)N(c1ccc(C(C)C(=O)OC(C)(C)C)cc1)C2 (stereo not shown) [ALB-111955]	0.396		1.08
COc1cccc2c1C(=O)N(c1ccc(C(C)C(=O)O)cc1)C2 (stereo not shown) [ALB-111957]			1.23
CC(C(=O)OC(C)(C)C)c1ccc(N2Cc3ccc(NC(=O)c4ccccc4)cc3C2=O)cc1 (stereo not shown) [ALB-111958]			1.06
COc1ccc2c(c1)CN(c1ccc(C(C)C(=O)O)cc1)C2=O (stereo not shown) [ALB-111959]	0.451		1.26
CC(=O)Nc1ccc2c(c1)C(=O)N(c1ccc(C(C)C(=O)OC(C)(C)C)cc1)C2 (stereo not shown) [ALB-111960]	6.62		1.24
CC(C(=O)O)c1ccc(N2Cc3ccccc3C2=O)cc1Br (stereo not shown) [ALB-111962]			1.08
CC(C(=O)OC(C)(C)C)c1ccc(N2Cc3ccccc3C2=O)cc1-c1ccc(Cl)c(Cl)c1 (stereo not shown) [ALB-111963]			1.02
CC(C(=O)O)c1ccc(N2C(=O)c3ccccc3C2C)cc1 (stereo not shown) [ALB-111964]	1.43		1.63
CC(C(=O)O)c1ccc(N2Cc3ccc(NC(=O)c4ccc(Cl)cc4)cc3C2=O)cc1 (stereo not shown) [ALB-111983]			1.06
COc1ccc(C(=O)Nc2ccc3c(c2)C(=O)N(c2ccc(C(C)C(=O)O)cc2)C3)cc1 (stereo not shown) [ALB-111984]	9.46		1.19
